The data set is described as follows: Prodrug to drug conversion half-life in vitro, PBS pH 7.4, 37° C. The note with it: buffer. It is filed as physicochemical. On the procedure:
General Methods for Measuring Conversion Half-Life
The assay was performed to investigate the conversion half-life of prodrug to drug of the prodrugs of the invention.
Peptide stock solutions were prepared by dissolving freeze-dried powder in PBS buffer to a target of 200 μM. PBS-buffer was Dulbecco's Phosphate Buffered Saline without CaCl2 and MgCl2, gibco 14190-094 adjusted to pH=7.4. The pH of the peptide stock solutions was adjusted to 7.4 with 0.02 M HCl or 0.02M NaOH. Samples were filled in Agilent HPLC vials with fixed insert. Vials were capped to prevent evaporation. The HPLC vials were incubated at 37° C. and samples were withdrawn at different time points over a period of 2 weeks, flash frozen at −80° C., and stored at −20° C. until analysis.
Sample analysis was carried out using UPLC coupled to UV detection at 215 nm and MS (UPLC-UV-MS). One μl of sample was injected on to a Waters Acquity UPLC with a flow-through-needle injection system and on to a Waters Acquity CSH C18 column (1*150 mm), with a particle size of 1.7 μm and held at 55° C. A flow-rate of 100 μl/min was delivered with a Binary solvent manager pump having 0.1% formic acid in water as solvent A and 0.1% formic acid in acetonitrile as solvent B. Gradient elution was carried out using 15-32% B from 0 to 4 min followed by 32 to 48% B from 4 to 54 min. […]

Each structure is given as a SMILES string.

Turning to `CC[C@H](C)[C@H](NC(=O)[C@H](Cc1ccccc1)NC(=O)[C@H](CCC(=O)O)NC(=O)[C@H](CCCCNC(=O)COCCOCCNC(=O)COCCOCCNC(=O)CC[C@H](NC(=O)CCCCCCCCCCCCCCCCC(=O)O)C(=O)O)NC(=O)[C@H](C)NC(=O)[C@H](C)NC(=O)[C@H](CCC(N)=O)NC(=O)CNC(=O)[C@H](CCC(=O)O)NC(=O)[C@H](CC(C)C)NC(=O)[C@H](Cc1ccc(O)cc1)NC(=O)[C@H](CO)NC(=O)[C@H](CO)NC(=O)[C@@H](NC(=O)[C@H](CC(=O)O)NC(=O)[C@H](CO)NC(=O)[C@@H](NC(=O)[C@H](Cc1ccccc1)NC(=O)[C@@H](NC(=O)CNC(=O)[C@H](CCC(=O)O)NC(=O)C(C)(C)NC(=O)[C@H](Cc1c[nH]cn1)NC(=O)CN(CCNC(=O)CC[C@H](NC(=O)CCCCCCCCCOc1ccc(C(=O)O)cc1)C(=O)O)C(=O)CN)[C@@H](C)O)[C@@H](C)O)C(C)C)C(=O)N[C@@H](C)C(=O)N[C@@H](Cc1c[nH]c2ccccc12)C(=O)N[C@@H](CC(C)C)C(=O)N[C@H](C(=O)N[C@@H](CCCNC(=N)N)C(=O)NCC(=O)N[C@@H](CCCNC(=N)N)C(=O)NCC(=O)O)C(C)C` [Chem. 18, Gly-N^α-2-[[(4S)-4-carboxy-4-[10-(4-carboxyphenoxy)decanoylamino]butanoyl]amino]ethyl-Gly-semaglutide], the half-life – broadly, how long it takes for the measured level to halve – was 115 h.

Regarding `CC[C@H](C)[C@H](NC(=O)[C@H](Cc1ccccc1)NC(=O)[C@H](CCC(=O)O)NC(=O)[C@H](CCCCNC(=O)COCCOCCNC(=O)COCCOCCNC(=O)CC[C@H](NC(=O)CCCCCCCCCCCCCCCCC(=O)O)C(=O)O)NC(=O)[C@H](C)NC(=O)[C@H](C)NC(=O)[C@H](CCC(N)=O)NC(=O)CNC(=O)[C@H](CCC(=O)O)NC(=O)[C@H](CC(C)C)NC(=O)[C@H](Cc1ccc(O)cc1)NC(=O)[C@H](CO)NC(=O)[C@H](CO)NC(=O)[C@@H](NC(=O)[C@H](CC(=O)O)NC(=O)[C@H](CO)NC(=O)[C@@H](NC(=O)[C@H](Cc1ccccc1)NC(=O)[C@@H](NC(=O)CNC(=O)[C@H](CCC(=O)O)NC(=O)C(C)(C)NC(=O)[C@H](Cc1c[nH]cn1)NC(=O)CN(CCNC(=O)CC[C@H](NC(=O)CCCCCCCCCCOc1ccc(C(=O)O)cc1)C(=O)O)C(=O)CN)[C@@H](C)O)[C@@H](C)O)C(C)C)C(=O)N[C@@H](C)C(=O)N[C@@H](Cc1c[nH]c2ccccc12)C(=O)N[C@@H](CC(C)C)C(=O)N[C@H](C(=O)N[C@@H](CCCNC(=N)N)C(=O)NCC(=O)N[C@@H](CCCNC(=N)N)C(=O)NCC(=O)O)C(C)C` [Chem. 26, Gly-N^α-2-[[(4S)-4-carboxy-4-[11-(4-carboxyphenoxy)undecanoylamino]butanoyl]amino]ethyl-Gly-semaglutide], the half-life is 118 h.

For the origin of these results see US12616739B2, “GLP-1 prodrugs and uses thereof” (Novo Nordisk A/S, priority 2020, dated 2026).
